Assay: Solubility of fluticasone propionate in propylene glycol, propylene carbonate and mixtures thereof
Type: physicochemical
Conditions: 25° C.
Experimental: In the drawing FIGURE this solubility data obtained at 25° C. is plotted as the dark line and the idealized (theoretical) solubility is plotted as the light line. In “ideal” solutions, the effect of each component is additive in a linear fashion. If solvent A has a property with a value of 50 and solvent B a value of 100 for the same property, an equal blend of A and B would be expected to give a value of 75 for that property. […] The lightly colored line represents “ideal” linear behavior. Since propylene glycol can solubilize about 10 times more drug than propylene carbonate, the “ideal” line slopes down strongly as we move from pure propylene glycol to pure propylene carbonate. […] Two important observations can be made.

Fluticasone propionate solubility (% propylene glycol/% propylene carbonate 0/100): 1.17 % w/w | Fluticasone propionate solubility (% propylene glycol/% propylene carbonate 12.5/87.5): 1.72 % w/w | Fluticasone propionate solubility (% propylene glycol/% propylene carbonate 25/75): 1.56 % w/w | Fluticasone propionate solubility (% propylene glycol/% propylene carbonate 50/50): 1.09 % w/w | Fluticasone propionate solubility (% propylene glycol/% propylene carbonate 75/25): 0.48 % w/w | Fluticasone propionate solubility (% propylene glycol/% propylene carbonate 100/0): 0.08 % w/w | Drug solubilized by propylene glycol relative to propylene carbonate (pure solvents): about 10 times
Compound: CCC(=O)O[C@]1(C(=O)SCF)[C@H](C)C[C@H]2[C@@H]3C[C@H](F)C4=CC(=O)C=C[C@]4(C)[C@@]3(F)[C@@H](O)C[C@@]21C [Fluticasone propionate, 6α,9α-difluoro-17α(1-oxopropoxy)-11β-hydroxy-16α-methyl-3-oxo-androsta-1,4-diene-17β-carbothioic acid S-fluoromethyl ester]
Measured solubility compared with ideal (linear, theoretical) solubility (all propylene glycol/propylene carbonate mixtures): the measured solubility exceeds the ideal solubility | Measured solubility in blends compared with solubility in single solvent (blends containing about 99 to 45% propylene carbonate): the measured solubility exceeds the solubility in propylene glycol
